Results on 20 sequences are retold here after patent US10617750B2, “Partner of SLD five 1 (PSF1)-derived peptide” (Vasculead Inc., priority 2012, dated 2020).

No end group written: not given here.

The test system of series [1] is peptide specific human CTL. The series can be described thus: Human CTL induction assay (IFN-γ ELISPOT). The series is classed as cell-based. Particulars: for Positive donor number: HLA-A0201 healthy volunteers, positive = difference of 50 or more peptide specific spots; for Donor positive percentage: positive donors / donors examined. As to the method:
A human CTL induction assay was conducted under conditions with reference to a known report (Harano et al. Int. J. Cancer 2008; 123:2616-2625).
Heparinized peripheral blood of healthy volunteers having HLA-A0201 was subjected to centrifugation at 3000 rpm for 20 minutes, thereby removing plasma. Cell pellets were supplemented with HBSS(−) (Wako Pure Chemical Industries, Ltd, Richmond, Va.) to which 5 mM of HEPES (SIGMA, Carlsbad, Calif.) had been added, and were suspended, thereby overlaying the suspension over a Ficoll-paque PREMIUM (GE Healthcare, Ltd., Pittsburgh, Pa.). Then, 400 g of the resulting substance was subjected to centrifugation for 40 minutes, and peripheral blood […] cells (PBMCs) separated as an intermediate layer were collected.
PBMCs were supplemented with CD14 microbeads (Miltenyi Biotec K.K.), and caused to react at 4° C. for 15 minutes. The cells were passed through LS columns (Miltenyi Biotec K.K., Tokyo, Japan), and CD14-positive cells were obtained by using QuadroMACS™ Separator (Miltenyi Biotec K.K., Tokyo, Japan). The rest of the cells were collected and washed, and then supplemented with CD8 microbeads (Miltenyi Biotec K.K., Tokyo, Japan) and allowed to react at 4° C. for 15 minutes. Thereafter, a similar process is performed, thereby obtaining CD8-positive cells. The CD14-positive cells were subjected to differentiation induction to monocyte-derived dendritic cells (Mo-DCs), and CD8-positive cells were temporarily frozen for storage.
Since CD8-positive cells were subjected to antigen stimulation twice, peptide-presenting cells were produced twice accordingly. CD14-positive cells were disseminated in two RepCell plates (CellSeed Inc., Tokyo, Japan), and incubated in a 5% CO2 incubator at 37° C. with a culture solution in which 100 ng/ml GM-CSF (R&D Systems, Minneapolis, Minn.) and 10 ng/ml IL-4 (R&D Systems) were added to an AIM-V (Invitrogen Corporation, Carlsbad, Calif.) culture medium including antibiotic and serum.
First production of peptide-presenting cells was started 5-7 days after the start of incubation. To one of the plates, 0.1 KE/ml OK-432 (Chugai Pharmaceutical Co., Ltd., Tokyo, Japan) was added, and on the next day, cells were collected and inoculated in a 96-well U-bottom plate. Then, 20 μg/ml of assay peptide of one type was added to each half area (48 wells) of the plate, and incubated for one day at 37° C. in a 5% CO2 incubator, thereby producing peptide-presenting cells. Second production was performed similarly on the other plate 12-14 days after the start of incubation.
Peptide-presenting cells in a 96-well plate were irradiated with X rays (30 Gy), and the frozen stored CD8-positive cells were added to all the wells, thereby performing first antigen stimulation. As a culture solution, a solution in which 10 ng/ml IL-7 (R&D Systems, Minneapolis, Minn.) was added to an AIM-V culture medium including antibiotic and serum was used. After incubation for seven days, cells included in supernatant were collected and cocultured with peptide-presenting cells (after X-ray irradiation) obtained by the second production, thereby performing second antigen stimulation in the 96-well plate. At this time, 20 U/mL of IL-2 (Shionogi & Co., Ltd., Florham Park, N.J.) was added to the culture solution. After further incubation for seven days, cells in supernatant including CTL were collected and washed with an AIM-V culture medium including antibiotic and serum to have a concentration of approximately 2×10^5 cells/ml per well, thereby obtaining responder cells for an ELISPOT assay.
T2 cells of stimulator cells for use in an ELISPOT assay were produced by incubating the cells for one night in an AIM-V culture medium supplemented with an assay peptide (20 μg/mL). As stimulator cells of a negative control, only T2 cells were used (without peptides). […]

In series [2] the test system is peptide specific CTL through HLA-A02. The series can be described thus: Mouse CTL induction assay (IFN-γ ELISPOT after peptide immunization). It is filed as in vivo. Particulars: CB6F1-Tg (HLA-A0201/H2-Kb) mice, 50 μg peptide/mice, spleen cells two weeks after injection; IFN-γ spots minus negative control peptide. As to the method:
The mouse CTL inducing activity with peptides was determined by using mouse immune models. Regarding mice, CB6F1-Tg (HLA-A0201/H2-Kb)A0201 was obtained from Taconic Biosciences, Inc. At most five types of peptide solutions dissolved in DMSO were mixed to produce a PBS solution, and the PBS solution was mixed together with the same amount of MONTANIDE ISA 51VG (SEPPIC), thereby producing an emulsion antigen solution. Then, 50 μL of the antigen solution was used for hypodermic injection into each of two sites at both sides of the belly of the mice (50 μg peptide/mice, N=3-4). Two weeks after the injection, spleen was removed, and spleen cells from which erythrocyte had been eliminated with a solution (BD Pharm Lyse™, Becton, Dickinson and Company, La Jolla, Calif.) were collected as responder cells for an ELISPOT assay.
The ELISPOT assay was conducted by detecting IFN-γ produced from responder cells. The procedure thereof conformed to an accompanying document of an assay kit, Mouse IFN-γ ELISpot^PLUS (MABTECH, Cincinnati, Ohio). Preincubation for the IFN-γ production was performed by adding cells to a 96-well plate included in the assay kit. Stimulator cells were inoculated in a duplicate well or a single well of 5×10^4 cell/100 μL/well, and then responder cells were added to 2×10^6 cell/100 μL/well. After one-night coculture, the cells were removed and the well was washed, and then primary antibodies (biotin-antimouse IFN-γ antibodies) included in the assay kit were added. After reaction for two hours at room temperature, the well was washed, supplemented with secondary antibodies (streptavidin-ALP), and subjected to reaction for one hour at room temperature. After having been sufficiently washed, the cells were supplemented with a substrate solution and left for one minute at room temperature. To terminate coloring reaction, the plate was sufficiently washed with running water and was air-dried.
The number of blue spots observed at the well bottom was measured with an ImmunoSpot® S5 Verse Analyzer (Cellular Technology Limited, Shaker Heights, Ohio). Measurement values of unclear spots because of a wide range of coloring were not used. An average value was obtained for the duplicate well, and the difference from the negative control was calculated in order to obtain the number of spots specific to peptides. The average value and the SD value were calculated by using values for individual mice, and the case having a positive number of differences between the average value and the SD value was determined as positive.

The next series has as its system T2 cells. The series can be described thus: Human CTL cytotoxic assay. It is filed as cell-based. As to the method:
Specifically, assay conditions were set with reference to a method described in a known report (New CFSE-based assay to determine susceptibility to lysis by cytotoxic T cells of leukemic precursor cells within a heterogeneous target cell population. Jedema I. et al. Blood 2004; 103:2677-2682).
As target cells for use in the cytotoxic assay, 1 μM of CellTracker™ Green CMFDA (5-chloromethylfluorescein diacetate) (Invitrogen Corp., Carlsbad, Calif.) was added to T2 cells, and these cells were allowed to react with each other at 37° C. for 15 minutes. The T2 cells were labeled with CMFDA, which is a fluorescent marker, washed with AIM-V, supplemented with assay peptides (20 μg/ml), and incubated for one night. As target cells of a negative control, T2 cells only labeled with a fluorescent marker were used (without peptide addition). The cells were washed with an AIM-V culture medium including antibiotic and serum to have a concentration of 5×10^4 cells/ml.
The cells were prepared to have concentrations of 50, 15, 5×10^4 cells/ml after washing with AIM-V. The preparation was performed with an AIM-V culture medium including antibiotic and serum.
Target cells (T) supplemented with peptides used in CTL induction or target cells (T) of a negative control supplemented with no peptides were mixed with effector cells (E) at a cell ratio (E/T ratio) of 10:1, 3:1, and 1:1, and cocultured for one night. Immediately before measurement with a MACS Quant (Miltenyi Biotec, San Diego, Calif.) or a FACS Aria, 0.1 μg/ml of DAPI was added in order to distinguish living cells from dead cells by means of staining. In an analysis, the proportion of DAPI-negative cells (living cells) in target cells labeled with CMFDA was obtained, and the survival rate of target cells was calculated using incubation conditions (only for target cells) where coculture with effector cells was not performed as 100%.

The test system of the next series is peptide specific CTL. As to the kind of experiment: CTL inducibility of peptides (summary statement). It is filed as cell-based. An excerpt: According to the embodiments of the present invention, the phrase “having CTL inducibility” means that the peptide is recognized by a specific CTL. In other word, the peptide has an ability to induce a peptide specific CTL. […] The ability to induce the peptide specific CTL can be examined by, for example, determining whether or not a cytokine such as interferon-γ (IFN-γ) is produced by peptide-stimulated peripheral blood mononuclear cells (PBMCs) in response to antigen presenting cells which are pulsed with said peptide using the ELISA technique or the like. In addition, cytotoxic activity of the induced CTL can be determined by the ^51Cr-release assay and the like. The peptide of the present invention is preferred to have 8 to 14, more preferably 8 to 11 and especially, 9 or 10 amino acid residues in view of good recognition by CTL.
These all three peptides are located in the region from 79 to 100 of PSF1 (FIG. 3). […] (SEQ ID NO.:6) or […] (SEQ ID NO.: 8) or […]

In series [1], “SLYIEVRCL [PSF1-derived peptide, initiating amino acid no; 145]” registered a Positive donor number of 2 and a Donor positive percentage of 100%. Also, the “Specific spot number (Ave ± SD)” value in series [2] worked out at 43 ± 24. Turning to YLYDRLLRI, the cytotoxic activity entry in the series with T2 cells was “particularly high”.

Regarding “CLKDYGEFEV [PSF1-derived peptide, initiating amino acid no; 152]”, the “Specific spot number (Ave ± SD)” value in series [2] was 53 ± 28. For the sequence “ALRWEYGSVL [PSF1-derived peptide, initiating amino acid no; 89]”, in the series on peptide specific CTL, the CTL inducibility entry is listed as “high”. Further, the “Survival rate of target cells pulsed with peptide vs not pulsed” value in the series on T2 cells (CTL line specific to the peptide cocultured with T2 cells at E:T 1:1, 3:1, 10:1, FIG. 2) is given as “decreased to a degree greater than target cells not pulsed with peptides”. In series [1], the Positive donor number came to 2 and the Donor positive percentage came out at 100%. Turning to “KAMELIREL [PSF1-derived peptide, initiating amino acid no]”, in series [2], the “Specific spot number (Ave ± SD)” value is given as 22 ± 13.

LIRNRRCTV: the “Specific spot number (Ave ± SD)” value in series [2] is 7 ± 9. Same read-out and setting: for “VLPNALRFHM [PSF1-derived peptide, initiating amino acid no; 97]” the value was 127 ± 41. As to ALRWEYGSV, the cytotoxic activity entry with T2 cells is on record as “particularly high”.

For the sequence “AYLYDRLLRI [PSF1-derived peptide, initiating amino acid no; 78]”, the CTL inducibility entry with peptide specific CTL is “high”. The “Specific spot number (Ave ± SD)” value in series [2] amounted to 23 ± 21. Consider “GDEGLDITQDMKP [PSF1-derived peptide, initiating amino acid number 130]”, for which, in series [1], the Positive donor number worked out at 0 and the Donor positive percentage was found to be 0%. The “Specific spot number (Ave ± SD)” value in series [2] is reported as 1 ± 2. The like results for “LPAFNEDGLRQV [PSF1-derived peptide, initiating amino acid number 21]” were, in that order, 0, 0% and 3 ± 8.

Turning to “QVLEEMKAL [PSF1-derived peptide, initiating amino acid no; 31]”, the “Specific spot number (Ave ± SD)” value in series [2] is 7 ± 7. On to “RALRWEYGSV [PSF1-derived peptide, initiating amino acid no; 88]”, for which the CTL inducibility result with peptide specific CTL was “high”. Besides, in series [1], the Positive donor number turned out to be 3 and the Donor positive percentage is given as 60%. As for “YLYDRLLRIR [PSF1-derived peptide, initiating amino acid no; 79]”, the CTL inducibility result in the series with peptide specific CTL is recorded as “high”. For the same sequence, the “Specific spot number (Ave ± SD)” value in series [2] is listed as 165 ± 17. As to RALRWEYGSVLPN, the cytotoxic activity result in the series with T2 cells was “particularly high”.

Turning to “SLATYMRSL [PSF1-derived peptide, initiating amino acid no; 120]”, the “Specific spot number (Ave ± SD)” value in series [2] worked out at 70 ± 79. The same measure, in the same setting: for “SLLRNRRCTV [PSF1-derived peptide, initiating amino acid no; 68]” the value was 1 ± 2; for “ALYEQNQDSV [PSF1-derived peptide, initiating amino acid no; 38]”, 30 ± 15; for “FLPRWKCEQL [PSF1-derived peptide, initiating amino acid no; 176]”, 31 ± 24.

“EMKALYEQN [PSF1-derived peptide, initiating amino acid number 35]”: in series [1], the Positive donor number is given as 1 and the Donor positive percentage is 13%. The “Specific spot number (Ave ± SD)” value in series [2] worked out at 6 ± 8.
